The target of assay [1] is dihydrodipicolinate reductase (DHPR) (Escherichia coli, UniProt P04036). Briefly: DHPR kinetic assay, spectrophotometric oxidation of NADPH at 340 nm. It counts as biochemical. The note with it: Examples 36/37, FIG. 16/17. Here is the method: DHPR was diluted in 10 mM HEPES at a pH of 7.4. DHPS (dihydrodipicolinate synthase) was not diluted and was stored in eppindorf tubes.
The L-ASA (L-aspartate semialdehyde) solution was prepared in the following manner. […] stock solution of ASA was prepared. 100 μl of the ASA stock solution was mixed with 150 μl of concentrated NaHCO3 and 375 μl of H2O. For use in the assay, 28.8 mM L-ASA was equal to 625 μl of the solution. The L-ASA stock solution was kept at a temperature of −20° C. After dilution, the pH of the 28.8 mM solution was checked and maintained between 1 and 2.
The solution for background detection was a 945 μl solution containing 0.1 HEPES (pH 7.8), 1 mM pyruvate, 6 μM NADPH, 40 μM L-ASA, and 7 μl of 1 mg/ml DHPS at 25° C. in the volumes provided above. The sample solution was then mixed and incubated for 10 minutes. Next, 500 nM solutions of the inhibitors and enough DMSO to provide a final DMSO concentration of 5% of the total assay volume were added. The solution was mixed and incubated for an additional 6 minutes.
In DHPR samples, 5 μl of the diluted DHPR enzyme were added. The sample was mixed for 20 seconds and then the reaction was run for 10 minutes. […] Reading of the samples was continued until 300 seconds. […] The substrate was kept at a level at least 10 times the Km. The final concentration of L-ASA was about 1 mM.

The target in assay [2] is T1, HMG CoA reductase (HMGCoAR) (UniProt P04035).
T1 sequence (P04035 1-888): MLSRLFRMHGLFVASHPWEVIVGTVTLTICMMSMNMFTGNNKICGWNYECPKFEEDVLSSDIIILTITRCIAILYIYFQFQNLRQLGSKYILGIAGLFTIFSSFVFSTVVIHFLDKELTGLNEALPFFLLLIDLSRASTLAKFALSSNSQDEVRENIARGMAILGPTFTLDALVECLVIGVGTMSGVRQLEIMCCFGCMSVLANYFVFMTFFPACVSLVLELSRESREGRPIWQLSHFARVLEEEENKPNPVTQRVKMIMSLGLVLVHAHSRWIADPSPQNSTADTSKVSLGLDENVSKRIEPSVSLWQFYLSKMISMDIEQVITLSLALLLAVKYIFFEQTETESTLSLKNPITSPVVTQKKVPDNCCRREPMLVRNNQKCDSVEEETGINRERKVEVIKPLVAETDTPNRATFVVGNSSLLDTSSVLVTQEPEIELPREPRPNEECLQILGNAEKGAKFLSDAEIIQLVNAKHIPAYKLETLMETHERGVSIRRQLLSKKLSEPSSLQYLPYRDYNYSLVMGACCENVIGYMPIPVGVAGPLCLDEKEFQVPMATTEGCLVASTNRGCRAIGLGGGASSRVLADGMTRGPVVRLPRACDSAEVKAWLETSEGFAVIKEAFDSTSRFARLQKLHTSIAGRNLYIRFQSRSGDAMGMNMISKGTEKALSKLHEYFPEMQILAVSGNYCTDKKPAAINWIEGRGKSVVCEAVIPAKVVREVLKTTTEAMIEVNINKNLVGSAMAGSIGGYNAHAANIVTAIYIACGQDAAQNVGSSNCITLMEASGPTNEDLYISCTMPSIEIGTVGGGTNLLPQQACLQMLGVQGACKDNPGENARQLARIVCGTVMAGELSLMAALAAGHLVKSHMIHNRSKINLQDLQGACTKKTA
In words: HMGCoAR kinetic assay, spectrophotometric oxidation of NADPH at 340 nm. It is filed as biochemical. Particulars: Examples 36/37, FIG. 16/17.
Procedure: For HMGCoAR analysis, the compounds were screened using a kinetic protocol that spectrophotometrically evaluates oxidation of NADPH.
Stock solutions of each of the reagents were prepared in the following concentrations. Dilutions of the stock solutions were prepared prior to running the assay in the concentrations indicated below. The enzyme was diluted in 1 M NaCl. To prepare the dilution buffer, 10 μl of HMGCoAR (1 mg/ml) was mixed with 133 μl of 3 M NaCl solution and 257 μl of 25 mM KH2PO4 buffer (pH 7.5; containing 50 mM NaCl, μl mM EDTA (ethylenediaminetetraacetic acid), and 5 mM DTT (dithiothreitol).
The HMGCoAR reaction was monitored at 340 nm prior to and after addition of the inhibitor to detect background reaction with the inhibitor. Solutions of 500 nM of the inhibitors in DMSO were prepared to provide a final DMSO concentration of 2% of the total assay volume. […] The reaction was then initiated with 5 μl of HMGCoAR enzyme (1:40 dilution of 0.65 mg/ml). After the enzyme was added, the solution was mixed for 20 seconds, and the reaction was run for 10 minutes. After a 50 second lag, the samples were read in a Cary spectrophotometer at 340 nm. Reading of the samples was continued until 300 seconds. […] The substrate was kept at a level at least 10 times the Km.

The target in assay [3] is T2, alcohol dehydrogenase (ADH) (Saccharomyces cerevisiae, UniProt P00330).
T2 construct: ADH from Bakers Yeast; from tissue; host or cells: bakers yeast
T2 sequence (P00330 1-348): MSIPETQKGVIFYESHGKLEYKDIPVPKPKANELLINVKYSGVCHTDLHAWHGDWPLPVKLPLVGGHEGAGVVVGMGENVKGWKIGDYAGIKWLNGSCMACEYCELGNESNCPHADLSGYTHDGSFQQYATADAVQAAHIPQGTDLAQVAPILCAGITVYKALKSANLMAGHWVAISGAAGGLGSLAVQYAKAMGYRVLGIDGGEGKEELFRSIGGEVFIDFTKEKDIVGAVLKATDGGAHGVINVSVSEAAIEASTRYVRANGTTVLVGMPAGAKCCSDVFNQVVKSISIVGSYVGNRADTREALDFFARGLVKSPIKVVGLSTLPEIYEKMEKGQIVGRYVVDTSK
Briefly: ADH kinetic assay, spectrophotometric reduction of NAD+ at 340 nm. It counts as biochemical, Bakers Yeast. The note with it: Examples 36/37, FIG. 16/17. On the procedure: Solutions of 100 μl of the inhibitors in DMSO were prepared to provide a final DMSO concentration of 5% of the total assay volume. […] The reaction was then initiated with 10 μl of ADH from Bakers Yeast (3.3 μg/ml; 1:400 dilution of 1.0 mg/ml). […] Reading of the samples was continued until 300 seconds. […] The substrate was kept at a level at least 10 times the Km. The final concentration of pyruvate was about 2.5 mM.
Where only a simple read was desired, as in the case of NAD+concentration determination, 13 μl (10 M stock) of ethanol was used to drive the reaction, and 10 μl of pure enzyme (1 mg/ml) was used. NAD+was soluble at 2 mM, which allowed the concentration determination step to be skipped. In this situation, the procedure was as follows. All of the ingredients except for the enzyme were mixed together. The solution was mixed well and the absorbance at 340 nm read. The enzyme was added and read again at OD 340 after the absorbance stopped changing, generally 10 to 15 minutes after the enzyme was added.

Assay [4] has as its target T3, lactate dehydrogenase (LDH) (Oryctolagus cuniculus, UniProt P13491).
T3 construct: LDH from Rabbit Muscle; from tissue; host or cells: rabbit muscle
In words: LDH kinetic assay, spectrophotometric oxidation of NADH at 340 nm. It counts as biochemical, Rabbit. Here is the method: Solutions of 100 μl of the inhibitors in DMSO were prepared to provide a final DMSO concentration of 5% of the total assay volume. […] The reaction was then initiated with 10 μl of LDH from Rabbit Muscle (0.5 μ/ml; 1:2000 dilution of 1.0 mg/ml). […] Reading of the samples was continued until 300 seconds. […] The substrate was kept at a level at least 10 times the Km.

The target of assay [5] is dihydrofolate reductase (DHFR) (UniProt P00374). In words: DHFR kinetic assay, spectrophotometric oxidation of NADH at 340 nm. It counts as biochemical. Here is the method: H2 folate was dissolved in DMSO to about 10 mM and then diluted with water to a concentration of 0.1 mM.
Chain of dihydrofolate reductase (DHFR) (P00374 whole entry): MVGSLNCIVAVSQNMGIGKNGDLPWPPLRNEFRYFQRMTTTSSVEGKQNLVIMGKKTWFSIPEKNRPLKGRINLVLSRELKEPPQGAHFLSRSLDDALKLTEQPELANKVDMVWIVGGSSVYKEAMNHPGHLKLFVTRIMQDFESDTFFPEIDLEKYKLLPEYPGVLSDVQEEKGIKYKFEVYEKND
Solutions of 100 μl of the inhibitors in DMSO were prepared to provide a final DMSO concentration of 5% of the total assay volume. […] The oxidation reaction was then initiated with 8 μl of DHFR (0.047 mg/ml). […] Reading of the samples was continued until 300 seconds. Cuvette #1 always contained the control reaction (no inhibitor), and cuvette #2 always contained the positive control reaction in which Cibacron Blue at 3 μM was substituted for inhibitor to yield […] inhibition. The substrate was kept at a level at least 10 times the Km.

In assay [6] the target is 1-deoxy-D-xylulose-5-phosphate reductase (DOXPR) (Escherichia coli, UniProt P45568). In words: DOXPR kinetic assay, spectrophotometric oxidation of NADPH at 340 nm. Particulars: Examples 36/37, FIG. 16/17. It counts as biochemical. On the procedure: DOXPR was diluted in 10 mM HEPES at a pH of 7.4.
Chain of 1-deoxy-D-xylulose-5-phosphate reductase (DOXPR) (P45568 whole entry): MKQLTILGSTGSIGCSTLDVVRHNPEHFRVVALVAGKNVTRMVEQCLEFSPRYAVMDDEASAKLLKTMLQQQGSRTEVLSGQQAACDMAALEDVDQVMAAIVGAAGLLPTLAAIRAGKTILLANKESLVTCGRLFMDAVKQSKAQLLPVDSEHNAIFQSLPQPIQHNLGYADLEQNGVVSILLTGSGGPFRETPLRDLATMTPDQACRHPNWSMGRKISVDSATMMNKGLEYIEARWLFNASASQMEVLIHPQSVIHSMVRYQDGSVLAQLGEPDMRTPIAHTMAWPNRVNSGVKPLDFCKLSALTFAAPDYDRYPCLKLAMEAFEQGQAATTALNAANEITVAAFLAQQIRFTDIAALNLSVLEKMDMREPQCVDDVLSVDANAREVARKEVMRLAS
Solutions of the inhibitors in DMSO were prepared to provide a final DMSO concentration of 5% of the total assay volume. […] The oxidation reaction was then initiated with 10 μl of DOXP reductoisomerase (10 μg/ml). […] Reading of the samples was continued until 300 seconds. […] The substrate was kept at a level at least 10 times the Km.

Assay [7] deals with isopropylmalate dehydrogenase (IPMDH) (Escherichia coli, UniProt P30125). In words: IPMDH kinetic assay, spectrophotometric reduction of NAD at 340 nm. It is filed as biochemical, E. coli. Particulars: Examples 36/37, FIG. 16/17. On the procedure:
Inhibitor was incubated for 5 minutes at 37° C. in a 990 μl of a solution containing 20 mM potassium phosphate, pH 7.6, 0.3 M potassium chloride, 0.2 mM manganese chloride, 109 μM NAD, and 340 μM DL-threo-3-isopropylmalic acid (IPM). […] Reading of the samples was continued until 300 seconds. The final concentration of DMSO in the cuvette was 5% of the total assay volume. […] The substrate was kept at a level at least 10 times the Km.

In assay [8] the target is Human Aldose Reductase (AR) (Homo sapiens, UniProt P15121). In words: AR kinetic assay, spectrophotometric measurement of enzyme activity at 340 nm. It is filed as biochemical. Here is the method: Solutions of 100 μl of the inhibitors in DMSO were prepared to provide a final DMSO concentration of 5% of the total assay volume. […] The reaction was then initiated with 10 μl of Human Aldose Reductase (1:5 dilution of 0.55 mg/ml). […] Reading of the samples was continued until 300 seconds. The final DMSO concentration in the cuvette was 5%. […] The substrate was kept at a level at least 10 times the Km.

Assay [9] concerns the target glyceraldehyde-3-phosphate dehydrogenase (GAPDH) (Escherichia coli, UniProt P0A9B2). Briefly: GAPDH kinetic assay, spectrophotometric reduction of NAD+ at 340 nm. It counts as biochemical, E. coli. Particulars: Examples 36/37, FIG. 16/17. Here is the method: Reading of the samples was continued until 300 seconds. […] Cuvette #1 contained the control reaction (no inhibitor).
GAP for use in this experiment was deprotected from the diethyl acetal in the following manner. Water was boiled in recrystallizing dish. […] The tube was then immersed, while shaking, in the boiling water for 3 minutes.

Assay [10] deals with inosine-5′-monophosphate dehydrogenase (IMPDH). Briefly: IMPDH kinetic assay, spectrophotometric reduction of NAD+ at 340 nm. Particulars: for IC50: Examples 36/37, FIG. 16/17. It is filed as biochemical. On the procedure:
Solutions of 100 μl of the inhibitors in DMSO were prepared to provide a final DMSO concentration of 5% of the total assay volume. These solutions were incubated for 6 minutes at 37° C. in a 992 μl of a solution containing 0.1 M Tris-HCl, pH 8.0, 0.25 M KCl, 0.3% glycerol, 30 μM NAD+, and 600 μM IMP (inosine monophosphate). The reaction was then initiated with 8 μμl of IMPDH (0.75 μg/ml). […] Reading of the samples was continued until 300 seconds. Cuvette #1 contained the control reaction (no inhibitor), and cuvette #2 contained the positive control reaction in which Cibacron Blue was substituted for inhibitor. The substrate was kept at a level at least 10 times the Km.

The structures appear in SMILES notation. “And” between values parts separate entries of the source, which are not always exact repeats. Identical values can stand only once. Like-named read-outs stand apart in the source and are kept apart here.

Chain of glyceraldehyde-3-phosphate dehydrogenase (GAPDH) (P0A9B2 whole entry): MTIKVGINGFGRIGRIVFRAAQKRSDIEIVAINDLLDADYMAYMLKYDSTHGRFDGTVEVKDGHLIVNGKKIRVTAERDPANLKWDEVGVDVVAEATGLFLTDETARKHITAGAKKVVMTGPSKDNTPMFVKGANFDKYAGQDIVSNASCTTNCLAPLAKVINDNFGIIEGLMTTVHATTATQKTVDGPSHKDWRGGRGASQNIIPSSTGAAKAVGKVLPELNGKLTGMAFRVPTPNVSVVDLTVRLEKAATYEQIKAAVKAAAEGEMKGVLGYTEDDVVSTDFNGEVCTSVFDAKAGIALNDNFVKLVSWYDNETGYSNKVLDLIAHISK
Chain of dihydrodipicolinate reductase (DHPR) (P04036 whole entry): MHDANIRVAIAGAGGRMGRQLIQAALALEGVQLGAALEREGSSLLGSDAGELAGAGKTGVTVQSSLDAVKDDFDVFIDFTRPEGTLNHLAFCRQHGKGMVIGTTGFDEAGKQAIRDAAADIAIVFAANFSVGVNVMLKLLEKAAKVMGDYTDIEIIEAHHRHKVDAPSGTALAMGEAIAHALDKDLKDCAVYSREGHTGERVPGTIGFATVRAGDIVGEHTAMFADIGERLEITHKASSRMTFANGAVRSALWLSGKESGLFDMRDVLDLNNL
Chain of isopropylmalate dehydrogenase (IPMDH) (P30125 whole entry): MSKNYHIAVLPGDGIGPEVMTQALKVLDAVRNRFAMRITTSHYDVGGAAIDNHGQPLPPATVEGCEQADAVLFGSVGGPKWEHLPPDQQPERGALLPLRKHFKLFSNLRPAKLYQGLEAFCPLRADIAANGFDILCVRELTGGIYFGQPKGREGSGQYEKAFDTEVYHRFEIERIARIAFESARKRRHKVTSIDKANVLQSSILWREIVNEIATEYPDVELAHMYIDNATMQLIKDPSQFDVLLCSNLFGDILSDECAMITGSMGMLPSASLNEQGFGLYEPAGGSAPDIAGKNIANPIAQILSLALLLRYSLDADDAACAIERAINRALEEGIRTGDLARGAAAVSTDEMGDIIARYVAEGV

`O=C1NC(=S)SC1=Cc1ccc(-c2ccc(O)c(C(=O)O)c2)o1` [Compound 7e, 2-hydroxy-5-[5-(4-oxo-2-thioxo-thiazolidin-5-ylidenemethyl)-furan-2-yl]-benzoic acid]: the half-inhibitory concentration (IC50) stood at 2.1 µM in assay [1] (IC50 for DHPR); 0.143 µM in assay [2]; 3.4 µM in assay [3]; 0.34 µM in [4] (Example 37, FIG. 17); 4.3 µM in [5] (read-out: IC50 for DHFR; Examples 36/37, FIG. 16/17); 1.6 µM in assay [6] (IC50 for DOXPR).

As to `O=C1NC(=O)C(=Cc2ccc(-c3ccc(C(=O)O)cc3)o2)S1` [Compound 5a, 4-[5-(2,4-dioxo-thiazolidin-5-ylidenemethyl)-furan-2-yl]-benzoic acid], the IC50 in assay [1] (read-out: IC50 for DHPR) was > 200 µM; in assay [7] it was > 200 µM; in assay [3] it was 116 µM and 140 µM; in assay [8] (Examples 36/37, FIG. 16/17), 2.26 µM and 4.1 µM; in assay [9] (read-out: IC50 for GAPDH), > 200 µM; in assay [5] (Examples 36/37, FIG. 16/17; read-out: IC50 for DHFR), > 75 µM. The IC50 in [10] is 58.8 µM; in assay [10] (listed as Sa), > 200 µM. Further, in assay [5] (Example 37, result in words), the “inhibition of DHFR” value is listed as “No inhibiiton”.

With `O=C1NC(=O)C(=Cc2ccc(-c3ccc(O)c(C(=O)O)c3)o2)S1` [Compound 5e, 5-[5-(2,4-dioxo-thiazolidin-5-ylidenemethyl)-furan-2-yl]-2-hydroxy-benzoic acid], the IC50 was > 200 µM in assay [1] (read-out: IC50 for DHPR); > 50 µM in assay [7]; 21 µM in assay [3]; 46 µM in [4] (Examples 36/37, FIG. 16/17); > 200 µM in [9] (read-out: IC50 for GAPDH); 2.15 µM in [10]. Moreover, the IC50 in assay [6] (read-out: IC50 for DOXPR) was > 100 µM. Also, the “inhibition of AR” value in [8] (Examples 36/37, result in words) is listed as “No inhibition”. Besides, the “inhibition of DHFR” value in assay [5] (Example 37, result in words) is recorded as “No inhibition”.

`O=C1NC(=O)C(=Cc2ccc(-c3cccc(C(=O)O)c3)o2)S1` [Compound 5b, 3-[5-(2,4-dioxo-thiazolidin-5-ylidenemethyl)-furan-2-yl]-benzoic acid]: the half-maximal inhibitory concentration (IC50) in [1] (IC50 for DHPR), in [2], in [9] (IC50 for GAPDH) and in assay [6] (IC50 for DOXPR) was > 400 µM throughout. Also, the “inhibition of IMPDH” value in assay [10] (Example 37, result in words) is listed as “No inhibition”.

The values are drawn from patent publication US20050042674A9, “Common ligand mimics: thiazolidinediones and rhodanines” (priority 2002, published 2005).
